According to patent US8765721B2, “Composition comprising phosphatidyl serine and an antigen or allergen and the use thereof” (Vaccine Technology Limited, priority 2004, dated 2014):

Experiments:
Assay type in all cases: in vivo, rat
[1] = system: IgE; experiment: Ovalbumin-specific IgE ELISA of serum of immunised rats; details: pooled group serum
Description: (§1) Rats were injected with vaccine compositions comprising the ovalbumin antigen with and without di-oleoyl phosphatidyl serine, lyso-oleoyl phosphatidyl serine or stearoyl(X1)-arachidonoyl(X2) phosphatidyl serine and the concentrations of IgE, IgA and IgG are compared.
(§2) The animals were acclimatised for a period of 5 days prior to dosing. During the acclimatisation period animals were observed twice daily during the working week and once on each day during the weekend to evaluate the health status of the animals. Rats were then allocated to the following dose groups using computer-generated random order numbers.
(§3) On day 0, 20 μg of ovalbumin (OA) in phosphate buffered saline (PBS) with alhydrogel (AHG) adjuvant in a final volume of 0.5 mL was administered.
(§4) On days 21 and 42, 20 μg of ovalbumin (OA) in phosphate buffered saline (PBS) with the relevant test compound in a final volume of 0.5 ml was administered.
(§5) In each case, 0.5 mL of inoculum was injected subcutaneously into the scruff of the neck.
(§6) […] A blood sample was also taken from each animal on Days 15, 22, 29, 36, 43, 50, 57 and 64.
(§7) Serum was prepared by centrifugation of the blood sample at 2,500 rpm for 10 minutes and frozen at −20° C. The samples were then analysed by ELISA to establish the concentration of IgE, IgA and IgG1, IgG2a and IgG2b.
(§8) The purpose of an ELISA is to determine whether a particular protein is present in a sample and then enables quantification of how much is present. By coating the bottom of wells with ovalbumin (OVA) it is possible to bind anti-OVA specific antibodies. To detect only anti-OVA IgA antibodies anti-rat IgA conjugated to HRP was used as a secondary antibody. Quantification of specific antibodies in the rat sera samples was performed using antibody titrations. The data was reported as endpoint titers. Endpoint titers are defined as the last serum dilution giving an optical density value equal to twice the background optical density for the ELISA plate (buffer).

[2] = system: IgG2b; experiment: Ovalbumin-specific IgG2b ELISA of serum of immunised rats; details: pooled group serum
Description: as §1, §2, §3, §4, §5, §6, §7, §8

[3] = system: IgA; experiment: Ovalbumin-specific IgA ELISA of serum of immunised rats; details: pooled group serum
Description: as §1, §2, §3, §4, §5
On Day 0 a pre-inoculation blood sample was taken. A blood sample was also taken from each animal on Days 15, 22, 29, 36, 43, 50, 57 and 64.
as §7, §8

[4] = system: IgG1; experiment: Ovalbumin-specific IgG1 ELISA of serum of immunised rats; details: pooled group serum
Description: as §1, §2, §3, §4
(§9) In each case, 0.5 mL of inoculum was injected subcutaneously into the scruff of the neck. […]
as §7
as §8, with “To detect only anti-OVA IgA antibodies anti-rat IgA conjugated to HRP was used as a secondary antibody.” left out

[5] = system: IgE; experiment: Ovalbumin-specific IgE ELISA of serum of immunised rats; details: Day 1; 250 ug with 20 μg Ova s.c. on days 21 and 42; pooled group serum
[6] = system: IgA; experiment: Ovalbumin-specific IgA ELISA of serum of immunised rats; details: Day 1; 50 ug with 20 μg Ova s.c. on days 21 and 42; pooled group serum
[7] = system: IgG2a; experiment: Ovalbumin-specific IgG2a ELISA of serum of immunised rats; details: pooled group serum
Description: as §1, §2, §3, §4, §9, §7, §8

[8] = Day 1, 50 ug with 20 μg Ova s.c. on days 21 and 42
[9] = Day 15, 50 ug with 20 μg Ova s.c. on days 21 and 42
[10] = Day 15, 250 ug with 20 μg Ova s.c. on days 21 and 42
[11] = Day 22, 50 ug with 20 μg Ova s.c. on days 21 and 42
[12] = Day 22, 250 ug with 20 μg Ova s.c. on days 21 and 42
[13] = Day 29, 50 ug with 20 μg Ova s.c. on days 21 and 42
[14] = Day 29, 250 ug with 20 μg Ova s.c. on days 21 and 42
[15] = Day 36, 50 ug with 20 μg Ova s.c. on days 21 and 42
[16] = Day 36, 250 ug with 20 μg Ova s.c. on days 21 and 42
[17] = Day 43, 50 ug with 20 μg Ova s.c. on days 21 and 42
[18] = Day 43, 250 ug with 20 μg Ova s.c. on days 21 and 42
[19] = Day 50, 50 ug with 20 μg Ova s.c. on days 21 and 42
[20] = Day 50, 250 ug with 20 μg Ova s.c. on days 21 and 42
[21] = Day 57, 50 ug with 20 μg Ova s.c. on days 21 and 42
[22] = Day 57, 250 ug with 20 μg Ova s.c. on days 21 and 42
[23] = Day 64, 50 ug with 20 μg Ova s.c. on days 21 and 42
[24] = Day 64, 250 ug with 20 μg Ova s.c. on days 21 and 42
[25] = Day 1, 250 ug with 20 μg Ova s.c. on days 21 and 42

CCCCCCCC/C=C\CCCCCCCC(=O)OC[C@H](COP(=O)(O)OC[C@H](N)C(=O)O)OC(=O)CCCCCCC/C=C\CCCCCCCC [VT001, Dioleoyl phosphatidyl serine] gave an IgE endpoint titer [1, 8] of 0, an IgE endpoint titer [1, 9] of 0 and an IgE endpoint titer [1, 10] of 0. It also gave an IgE endpoint titer [1, 11] of 0, an IgE endpoint titer [1, 12] of 0 and an IgE endpoint titer [1, 13] of 0. For the same compound, the IgE endpoint titer [1, 14] was 40, the IgE endpoint titer [1, 15] was 40 and the IgE endpoint titer [1, 16] was 40. The IgE endpoint titer [1, 17] was 0, the IgE endpoint titer [1, 18] was 80 and the IgE endpoint titer [1, 19] was 1280. It also gave an IgE endpoint titer [1, 20] of 1280, an IgE endpoint titer [1, 21] of 160 and an IgE endpoint titer [1, 22] of 160. For the same compound, the IgE endpoint titer [1, 23] was 0, the IgE endpoint titer [1, 24] was 40 and the IgG2b endpoint titer [2, 8] was 0. It also gave an IgG2b endpoint titer [2, 25] of 0, an IgG2b endpoint titer [2, 9] of 160 and an IgG2b endpoint titer [2, 10] of 320. The IgG2b endpoint titer [2, 11] was 320, the IgG2b endpoint titer [2, 12] was 640 and the IgG2b endpoint titer [2, 13] was 160. The IgG2b endpoint titer [2, 14] was 640, the IgG2b endpoint titer [2, 15] was 160 and the IgG2b endpoint titer [2, 16] was 2560. It also gave an IgG2b endpoint titer [2, 17] of 160, an IgG2b endpoint titer [2, 18] of 1280 and an IgG2b endpoint titer [2, 19] of 2560. It also gave an IgG2b endpoint titer [2, 20] of 1280, an IgG2b endpoint titer [2, 21] of 5120 and an IgG2b endpoint titer [2, 22] of 5120. It also gave an IgG2b endpoint titer [2, 23] of 5120, an IgG2b endpoint titer [2, 24] of 5120 and an IgA endpoint titer [3, 25] of 0. For the same compound, the IgA endpoint titer [3, 9] was 0, the IgA endpoint titer [3, 10] was 0 and the IgA endpoint titer [3, 11] was 0. For the same compound, the IgA endpoint titer [3, 12] was 0, the IgA endpoint titer [3, 13] was 320 and the IgA endpoint titer [3, 14] was 320. For the same compound, the IgA endpoint titer [3, 15] was 640, the IgA endpoint titer [3, 16] was 640 and the IgA endpoint titer [3, 17] was 320. The IgA endpoint titer [3, 18] was 640, the IgA endpoint titer [3, 19] was 1280 and the IgA endpoint titer [3, 20] was 1280. It also gave an IgA endpoint titer [3, 21] of 1280, an IgA endpoint titer [3, 22] of 1280 and an IgA endpoint titer [3, 23] of 640. For the same compound, the IgA endpoint titer [3, 24] was 640, the IgG1 endpoint titer [4, 8] was 0 and the IgG1 endpoint titer [4, 25] was 0. It also gave an IgG1 endpoint titer [4, 9] of 160, an IgG1 endpoint titer [4, 10] of 160 and an IgG1 endpoint titer [4, 11] of 2560. The IgG1 endpoint titer [4, 12] was 2560, the IgG1 endpoint titer [4, 13] was 40960 and the IgG1 endpoint titer [4, 14] was 20480. For the same compound, the IgG1 endpoint titer [4, 15] was 20480, the IgG1 endpoint titer [4, 16] was 40960 and the IgG1 endpoint titer [4, 17] was 10240. For the same compound, the IgG1 endpoint titer [4, 18] was 10240, the IgG1 endpoint titer [4, 19] was 20480 and the IgG1 endpoint titer [4, 20] was 10240. For the same compound, the IgG1 endpoint titer [4, 21] was 40960, the IgG1 endpoint titer [4, 22] was 40960 and the IgG1 endpoint titer [4, 23] was 20480. The IgG1 endpoint titer [4, 24] was 20480, the IgE endpoint titer [5] was 0 and the IgA endpoint titer [6] was 0. The IgG2a endpoint titer [7, 8] was 0, the IgG2a endpoint titer [7, 25] was 0 and the IgG2a endpoint titer [7, 9] was 40. For the same compound, the IgG2a endpoint titer [7, 10] was 640, the IgG2a endpoint titer [7, 11] was 2560 and the IgG2a endpoint titer [7, 12] was 1280. It also gave an IgG2a endpoint titer [7, 13] of 5120, an IgG2a endpoint titer [7, 14] of 2560 and an IgG2a endpoint titer [7, 15] of 10240. The IgG2a endpoint titer [7, 16] was 5120, the IgG2a endpoint titer [7, 17] was 10240 and the IgG2a endpoint titer [7, 18] was 10240. The IgG2a endpoint titer [7, 19] was 40960, the IgG2a endpoint titer [7, 20] was 40960 and the IgG2a endpoint titer [7, 21] was 40960. The IgG2a endpoint titer [7, 22] was 40960, the IgG2a endpoint titer [7, 23] was 20480 and the IgG2a endpoint titer [7, 24] was 20480.
